# Like-named read-outs stand apart in the source and are kept apart here.
# How the values were obtained:
# [1] = tested on: HCT116 p53−/−: CYC116 resistant clones; assay: MTT based cell proliferation assay of ABT-263; conditions: polyploid clones, 96 hrs MTT
# Method: (§1) The MTT assay was performed in three independent replicates (n=3).
# (§2) This method is performed based on the principle that viable cells can reduce yellow colored MTT (3-(4,5-dimethylthiazol-2-yl)-2,5-diphenyltetrazolium bromide) salt to purple colored formazan. The intensity of the purple colored produced is directly proportional to number of viable cells, which can be measured […]. To determine the half inhibitory concentration (IC50) of any medicinal agent MTT assay is very reliable and well accepted. […] The assay was carried out in 2 technical replicates for each concentration and in 3 biological replicates. Alongside blank and controls were included and incubated for 96 hrs. At the end of the assay time point 10 μl of MTT/well (Sigma) (10 mg/ml) was added and incubated until the appearance of violet formazan crystals. The formazan was dissolved with 100 μl/well 10% aqueous SDS (pH: 5.5) by incubating the plates at 37° C. overnight. The optical density was measured at 540 nm using the Labsystem IMS reader and the […] values were determined using Chemorezist software.
# [2] = tested on: p53+/+ ZM447439 resistant clones; assay: MTT based cell proliferation assay of ABT-263; conditions: diploid p53+/+ ZM447439 resistant clones, 96 hrs MTT
# Method: as §1, §2
# [3] = tested on: p53−/− ZM447439 resistant clones; assay: MTT based cell proliferation assay of ABT-263; conditions: diploid p53−/− ZM447439 resistant clones, 96 hrs MTT
# Method: as §1, §2
# [4] = molecular target: Bcl-w (Homo sapiens, UniProt Q92843); conditions: cited from earlier work
# [5] = tested on: HCT116 p53+/+ parent; assay: cells; conditions: for IC50: Homo sapiens
# Method: as §2
# [6] = tested on: HCT116 p53−/− parent; assay: Cell proliferation (MTT) IC50, cross-resistance profile; format: cell-based; conditions: Homo sapiens, HCT-116
# [7] = tested on: R1.1 (HCT116 p53+/+ CYC116 resistant clone); assay: as above; format: cell-based; conditions: for IC50: Homo sapiens, HCT-116, clone R1.1; for fold increase of IC50 vs parent: clone R1.1 vs HCT116 p53+/+ parent
# Method: (§3) Colonies were isolated and bulked up for further studies. […] [1]
# as §2
# [8] = tested on: R1.2 (HCT116 p53+/+ CYC116 resistant clone); assay: as above; format: cell-based; conditions: for IC50: Homo sapiens, HCT-116, clone R1.2; for fold increase of IC50 vs parent: clone R1.2 vs HCT116 p53+/+ parent
# Method: as §3, §2
# [9] = tested on: R1.3 (HCT116 p53+/+ CYC116 resistant clone); assay: as above; format: cell-based; conditions: for IC50: Homo sapiens, HCT-116, clone R1.3; for fold increase of IC50 vs parent: clone R1.3 vs HCT116 p53+/+ parent
# Method: as §3, §2
# [10] = tested on: R2.1 (HCT116 p53−/− CYC116 resistant clone); assay: as above; format: cell-based; conditions: for IC50: Homo sapiens, HCT-116, clone R2.1; for fold increase of IC50 vs parent: clone R2.1 vs HCT116 p53−/− parent
# Method: as §3, §2
# [11] = tested on: R2.2 (HCT116 p53−/− CYC116 resistant clone); assay: as above; format: cell-based; conditions: for IC50: Homo sapiens, HCT-116, clone R2.2; for fold increase of IC50 vs parent: clone R2.2 vs HCT116 p53−/− parent
# Method: as §3, §2
# [12] = tested on: R2.3 (HCT116 p53−/− CYC116 resistant clone); assay: as above; format: cell-based; conditions: for IC50: Homo sapiens, HCT-116, clone R2.3; for fold increase of IC50 vs parent: clone R2.3 vs HCT116 p53−/− parent
# Method: as §3, §2
# [13] = tested on: R3.1 (HCT116 p53+/+ ZM447439 resistant clone); assay: as above; format: cell-based; conditions: for IC50: Homo sapiens, HCT-116, clone R3.1; for fold increase of IC50 vs parent: clone R3.1 vs HCT116 p53+/+ parent
# Method: as §3, §2
# [14] = tested on: R3.2 (HCT116 p53+/+ ZM447439 resistant clone); assay: as above; format: cell-based; conditions: for IC50: Homo sapiens, HCT-116, clone R3.2; for fold increase of IC50 vs parent: clone R3.2 vs HCT116 p53+/+ parent
# Method: as §3, §2
# [15] = tested on: R3.3 (HCT116 p53+/+ ZM447439 resistant clone); assay: as above; format: cell-based; conditions: for IC50: Homo sapiens, HCT-116, clone R3.3; for fold increase of IC50 vs parent: clone R3.3 vs HCT116 p53+/+ parent
# Method: as §3, §2
# [16] = tested on: R4.1 (HCT116 p53−/− ZM447439 resistant clone); assay: as above; format: cell-based; conditions: for IC50: Homo sapiens, HCT-116, clone R4.1; for fold increase of IC50 vs parent: clone R4.1 vs HCT116 p53−/− parent
# Method: as §3, §2
# [17] = tested on: R4.2 (HCT116 p53−/− ZM447439 resistant clone); assay: as above; format: cell-based; conditions: for IC50: Homo sapiens, HCT-116, clone R4.2; for fold increase of IC50 vs parent: clone R4.2 vs HCT116 p53−/− parent
# Method: as §3, §2
# [18] = tested on: R4.3 (HCT116 p53−/− ZM447439 resistant clone); assay: as above; format: cell-based; conditions: for IC50: Homo sapiens, HCT-116, clone R4.3; for fold increase of IC50 vs parent: clone R4.3 vs HCT116 p53−/− parent
# Method: as §3, §2
# [19] = tested on: one HCT116 p53+/+: CYC116 resistant clone; assay: MTT assay of CYC116 with or without Bcl-xL siRNA knockdown; format: cell-based; conditions: Homo sapiens, HCT-116
# Method: as §2
# [20] = tested on: primary tumor samples; assay: 96-h MTT cell proliferation assay on primary tumor biopsies; format: cell-based; conditions: Homo sapiens
# [21] = tested on: CYP1A1; assay: CYP1A1 expression after CYC116 treatment for 48 h; format: cell-based; conditions: HCT116 and HCT116 p53−/− treated with CYC116 for 48 h
# From the text: CYP1A1 is involved in the metabolism of polycyclic aromatic hydrocarbons (PAH). In tobacco smokers CYP1A1 transforms PAH into procarcinogens. CYP1A1 expression was reported in pulmonary cancers and also altered expression in many lung tumors (McLemore T. L. et al., Journal of the National Cancer Institute 1990; 82, 1333-39).
# [22] = molecular target: VEGFR2 (Homo sapiens, UniProt P35968); conditions: cited from earlier work
# [23] = molecular target: Flt-3 (Homo sapiens, UniProt P36888); conditions: cited from earlier work
# Chain of Flt-3 (P36888 27-993): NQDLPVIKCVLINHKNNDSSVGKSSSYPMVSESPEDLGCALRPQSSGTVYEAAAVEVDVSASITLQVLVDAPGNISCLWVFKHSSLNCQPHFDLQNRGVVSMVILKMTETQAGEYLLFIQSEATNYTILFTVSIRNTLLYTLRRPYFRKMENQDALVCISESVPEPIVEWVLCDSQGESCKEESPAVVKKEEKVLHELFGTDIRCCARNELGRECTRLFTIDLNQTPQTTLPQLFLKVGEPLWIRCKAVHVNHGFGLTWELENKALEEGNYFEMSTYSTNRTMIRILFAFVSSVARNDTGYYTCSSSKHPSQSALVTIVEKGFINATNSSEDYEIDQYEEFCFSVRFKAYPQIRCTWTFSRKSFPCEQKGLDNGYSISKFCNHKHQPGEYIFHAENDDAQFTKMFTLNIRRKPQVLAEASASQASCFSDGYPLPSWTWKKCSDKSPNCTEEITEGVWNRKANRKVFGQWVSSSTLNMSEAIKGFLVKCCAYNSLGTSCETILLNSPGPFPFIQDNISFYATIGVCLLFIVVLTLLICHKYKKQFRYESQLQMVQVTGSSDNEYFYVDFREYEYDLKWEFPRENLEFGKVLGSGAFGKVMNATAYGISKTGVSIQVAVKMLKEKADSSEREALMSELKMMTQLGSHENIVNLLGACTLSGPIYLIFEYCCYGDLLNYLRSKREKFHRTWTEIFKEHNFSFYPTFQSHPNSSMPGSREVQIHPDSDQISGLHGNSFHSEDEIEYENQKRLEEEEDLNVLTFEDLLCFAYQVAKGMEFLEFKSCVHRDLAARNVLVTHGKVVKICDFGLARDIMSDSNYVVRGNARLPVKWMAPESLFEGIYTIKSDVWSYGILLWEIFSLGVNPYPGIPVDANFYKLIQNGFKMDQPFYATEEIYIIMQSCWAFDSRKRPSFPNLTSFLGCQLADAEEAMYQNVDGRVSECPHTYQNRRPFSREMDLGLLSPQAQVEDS
# Chain of VEGFR2 (P35968 20-1356): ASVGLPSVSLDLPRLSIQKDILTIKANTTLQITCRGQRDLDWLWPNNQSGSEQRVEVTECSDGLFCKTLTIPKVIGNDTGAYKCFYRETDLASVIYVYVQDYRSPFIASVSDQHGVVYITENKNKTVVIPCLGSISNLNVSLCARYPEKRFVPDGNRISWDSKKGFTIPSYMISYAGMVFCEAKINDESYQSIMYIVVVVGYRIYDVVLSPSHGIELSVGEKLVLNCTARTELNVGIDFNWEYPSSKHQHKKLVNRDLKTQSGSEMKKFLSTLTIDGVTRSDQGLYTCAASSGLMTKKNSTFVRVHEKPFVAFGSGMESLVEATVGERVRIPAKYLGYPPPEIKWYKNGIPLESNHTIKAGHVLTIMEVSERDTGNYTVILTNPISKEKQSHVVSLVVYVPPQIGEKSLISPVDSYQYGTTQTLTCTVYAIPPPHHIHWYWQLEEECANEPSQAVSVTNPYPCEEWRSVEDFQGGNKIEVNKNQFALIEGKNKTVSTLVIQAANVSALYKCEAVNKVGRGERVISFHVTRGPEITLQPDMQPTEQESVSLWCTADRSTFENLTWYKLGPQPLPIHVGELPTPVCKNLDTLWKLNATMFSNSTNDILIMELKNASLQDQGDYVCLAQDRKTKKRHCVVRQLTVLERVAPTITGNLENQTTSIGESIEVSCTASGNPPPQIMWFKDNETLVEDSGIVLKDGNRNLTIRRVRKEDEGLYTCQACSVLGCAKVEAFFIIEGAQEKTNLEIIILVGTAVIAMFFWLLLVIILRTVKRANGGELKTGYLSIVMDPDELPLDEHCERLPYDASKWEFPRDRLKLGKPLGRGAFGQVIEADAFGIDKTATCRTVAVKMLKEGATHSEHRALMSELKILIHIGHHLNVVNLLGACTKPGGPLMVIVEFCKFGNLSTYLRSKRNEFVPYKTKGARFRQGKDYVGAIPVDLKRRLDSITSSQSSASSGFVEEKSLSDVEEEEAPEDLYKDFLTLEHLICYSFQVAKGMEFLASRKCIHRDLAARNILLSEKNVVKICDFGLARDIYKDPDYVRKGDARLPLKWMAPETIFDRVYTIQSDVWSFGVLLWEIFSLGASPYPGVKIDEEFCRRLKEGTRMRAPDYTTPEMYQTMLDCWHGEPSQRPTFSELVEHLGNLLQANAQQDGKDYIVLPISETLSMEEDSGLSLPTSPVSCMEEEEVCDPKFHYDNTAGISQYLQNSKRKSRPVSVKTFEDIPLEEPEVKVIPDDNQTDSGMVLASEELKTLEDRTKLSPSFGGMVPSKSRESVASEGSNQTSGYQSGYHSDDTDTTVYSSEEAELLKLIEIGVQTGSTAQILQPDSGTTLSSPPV
# Chain of Bcl-w (Q92843 whole entry): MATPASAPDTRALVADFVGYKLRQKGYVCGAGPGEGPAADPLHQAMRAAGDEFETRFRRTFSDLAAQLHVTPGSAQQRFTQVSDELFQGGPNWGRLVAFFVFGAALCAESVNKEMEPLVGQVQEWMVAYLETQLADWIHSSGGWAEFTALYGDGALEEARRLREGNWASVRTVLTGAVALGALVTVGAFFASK
SMILES,"IC50 ([5]; HCT-116, read-out: mean IC50)",IC50 [6],IC50 [7],fold increase of IC50 vs parent [7],IC50 [8],fold increase of IC50 vs parent [8],IC50 [9],fold increase of IC50 vs parent [9],IC50 [10],IC50 [11],IC50 [12],IC50 [13],fold increase of IC50 vs parent [13],IC50 [14],fold increase of IC50 vs parent [14],IC50 [15],fold increase of IC50 vs parent [15],IC50 [16],IC50 [17],IC50 [18],also measured
"CC1(C)CCC(c2ccc(Cl)cc2)=C(CN2CCN(c3ccc(C(=O)NS(=O)(=O)c4ccc(N[C@H](CCN5CCOCC5)CSc5ccccc5)c(S(=O)(=O)C(F)(F)F)c4)cc3)CC2)C1 [ABT-263, (R)4-(4-((4′-chloro-4,4-dimethyl-3,4,5,6-tetrahydro[1,1′-biphenyl]-2-yl)methyl)piperazin-1-yl)-N-((4-((4-morpholino-1-(phenylthio)butan-2-yl)amino)-3-((trifluoromethyl)sulfonyl)phenyl)sulfonyl)benzamide]",–,–,–,–,–,–,–,–,–,–,–,–,–,–,–,–,–,–,–,–,response to ABT-263 compared to parent HCT116 p53−/− cells [1]: significant cross-resistance; response to ABT-263 [2]: resistant; response to ABT-263 [3]: resistant; Ki [4]: < 0.001 µM
"CCN(CCCOc1ccc2c(Nc3cc(CC(=O)Nc4cccc(F)c4)n[nH]3)ncnc2c1)CCOP(=O)(O)O [AZD1152, 2-[ethyl-[3-[4-[[5-[2-(3-fluoroanilino)-2-oxoethyl]-1Hpyrazo[3 yl]amino]quinazolin7-yl]oxypropyl]amino]ethyldihydrogen phosphate]",0.01 µM,> 50 µM,17 µM,1700 fold,18 µM,1800 fold,11 µM,1100 fold,> 50 µM,> 50 µM,> 50 µM,36 µM,3600 fold,8 µM,800 fold,0.07 µM,7 fold,> 50 µM,> 50 µM,> 50 µM,–
"Cc1nc(N)sc1-c1ccnc(Nc2ccc(N3CCOCC3)cc2)n1 [CYC116, 4-methyl-5-(2-(4-morpholinophenylamino)pyrimidin-4-yl)thiazol-2-amine]",–,–,–,–,–,–,–,–,–,–,–,–,–,–,–,–,–,–,–,–,"sensitization towards CYC116 by knockdown of Bcl-xL ([5]; Bcl-xL siRNA knockdown in HCT116 parent cell line (low Bcl-xL expression)): no sensitization effect; IC50 ([5]; HCT-116, read-out: IC50 value): 0.34 µM; IC50 ([19]; read-out: IC50 value): 6 µM; IC50 ([19]; read-out: IC50 value after knockdown of Bcl-xL): 0.9 µM; IC50 ([20]; 13 sensitive primary tumor samples): ≤ 4.42 µM; IC50 ([20]; 14 resistant primary tumor samples): ≤ 95 µM; up-regulation of CYP1A1 [21]: not detected; inhibition of VEGFR2 [22]: inhibits; inhibition of Flt-3 [23]: inhibits"
"O=C(O)c1ccc(Nc2ncc3c(n2)-c2ccc(Cl)cc2C(c2c(F)cccc2F)=NC3)cc1 [MLN8054, 4-[[9-chloro-7-(2,6-difluorophenyl)-5H-pyrimido[5,4-d][2]benzazepin-2-yl]amino]benzoic acid]",0.19 µM,0.17 µM,31 µM,163 fold,15 µM,79 fold,16 µM,84 fold,30 µM,3 µM,18 µM,2 µM,10 fold,2 µM,10 fold,0.4 µM,2 fold,22 µM,18.6 µM,39 µM,fold increase of IC50 vs parent [10]: 176 fold; fold increase of IC50 vs parent [11]: 18 fold; fold increase of IC50 vs parent [12]: 106 fold; fold increase of IC50 vs parent [16]: 129 fold; fold increase of IC50 vs parent [17]: 109 fold; fold increase of IC50 vs parent [18]: 229 fold
"Cc1cc(Nc2cc(N3CCN(C)CC3)nc(Sc3ccc(NC(=O)C4CC4)cc3)n2)n[nH]1 [VX-680, N-[4-[4-[4-methylpiperazin-1-yl)-6-[(5-methyl-1H-pyrazol-3-yl)amino]pyrimidin-2-yl]sulfanylphenyl]cyclopropanecarboxamide]",0.03 µM,0.1 µM,1.9 µM,63 fold,2 µM,67 fold,1 µM,33 fold,4 µM,2 µM,2.4 µM,2.6 µM,87 fold,0.7 µM,23 fold,0.09 µM,3 fold,0.8 µM,1.5 µM,3 µM,fold increase of IC50 vs parent [10]: 40 fold; fold increase of IC50 vs parent [11]: 20 fold; fold increase of IC50 vs parent [12]: 24 fold; fold increase of IC50 vs parent [16]: 8 fold; fold increase of IC50 vs parent [17]: 15 fold; fold increase of IC50 vs parent [18]: 13 fold

# — patent US20140336073A1, “METHOD OF DETERMINATION OF CANCER CELL DRUG SENSITIVITY TOWARDS AURORA KINASE INHIBITORS” (PALACKY UNIVERSITY, OLOMOUC, priority 2011, published 2014)
